Calls of active or inactive are those of the source.
Legend:
[1] = target: Cytochrome P450 2C9 (Homo sapiens, UniProt P11712); settings: Potency
[2] = target: Cytochrome P450 2C19 (Homo sapiens, UniProt P33261); assay: qHTS Assay for Inhibitors and Substrates of Cytochrome P450 2C19. [Related pubchem assays: 410 ]; assay type: ADME; settings: read-out: Potency
[3] = Shn3 3'UTR reporter inhibitors, dose response, cell-based, Clone20 osteoblasts, firefly luciferase, cherry-picked (AID 624132); assay type: functional;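 also: firefly luciferase luminescence from reporter carrying the Shn3 3'UTR in osteoblasts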
[4] = HepG2 cell cytotoxicity, dose response, cytotoxicity control for Shn3 inhibitor project, CellTiter-Glo, cherry-picked (AID 624134); assay type: functional, cell-based
[5] = target: T1, Replicative DNA helicase DnaB (Mycobacterium tuberculosis, UniProt P9WMR3); assay: DnaB intein splicing inhibitors, dose response, biochemical, cell-free fluorescence (AID 449749); assay type: functional
T1 sequence (P9WMR3 whole entry): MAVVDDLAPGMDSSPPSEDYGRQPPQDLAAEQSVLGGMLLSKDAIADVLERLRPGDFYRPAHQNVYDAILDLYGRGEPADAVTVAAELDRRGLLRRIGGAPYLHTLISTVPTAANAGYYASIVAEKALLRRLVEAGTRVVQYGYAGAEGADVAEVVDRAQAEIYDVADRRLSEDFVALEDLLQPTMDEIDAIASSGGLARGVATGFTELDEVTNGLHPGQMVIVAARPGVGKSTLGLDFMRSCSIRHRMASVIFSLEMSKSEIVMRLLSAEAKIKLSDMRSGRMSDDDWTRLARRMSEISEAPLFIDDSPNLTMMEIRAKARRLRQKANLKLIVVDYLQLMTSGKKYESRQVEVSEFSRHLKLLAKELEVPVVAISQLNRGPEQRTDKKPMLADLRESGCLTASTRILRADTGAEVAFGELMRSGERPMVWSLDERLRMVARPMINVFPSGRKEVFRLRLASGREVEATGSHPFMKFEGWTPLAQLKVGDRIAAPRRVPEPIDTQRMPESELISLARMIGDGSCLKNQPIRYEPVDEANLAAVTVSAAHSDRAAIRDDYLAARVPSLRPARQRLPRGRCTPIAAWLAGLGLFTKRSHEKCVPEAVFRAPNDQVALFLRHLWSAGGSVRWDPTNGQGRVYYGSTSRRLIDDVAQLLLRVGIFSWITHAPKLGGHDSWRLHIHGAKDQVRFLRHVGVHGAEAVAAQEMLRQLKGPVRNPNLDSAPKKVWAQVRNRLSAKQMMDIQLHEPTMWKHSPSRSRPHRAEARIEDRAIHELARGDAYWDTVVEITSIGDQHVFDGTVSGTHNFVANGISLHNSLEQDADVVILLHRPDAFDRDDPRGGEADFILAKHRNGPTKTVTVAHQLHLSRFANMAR

[6] = cytotoxicity in KRAS-transformed pancreatic duct cells, primary screen, cell-based, fluorescence, HTS (AID 431); assay type: functional; settings: Homo sapiens;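 also: cell line used: HPDE-C7K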
[7] = control 3'UTR Renilla luciferase suppression, dose response, counter-screen for Shn3 inhibitor project, cell-based, Clone20-Shn3RL, cherry-picked (AID 624133); assay type: functional
[8] = Luminescence Cell-Based Dose Retest to Confirm Inhibitors of Cancer Stem Cells. [Related pubchem assays (depositor defined):AID2717, AID2721]; assay type: functional; settings: Homo sapiens
[9] = target: T2, Protein RecA (Mycobacterium tuberculosis, UniProt P9WHJ3); assay: Fluorescence Cell-Free Homogeneous Dose Retest to Identify Inhibitors of RecA-Intein Splicing Activity. [Related pubchem assays (depositor defined):AID2097, AID2223, AID489010, AID492950]; assay type: functional
T2 sequence (P9WHJ3 whole entry): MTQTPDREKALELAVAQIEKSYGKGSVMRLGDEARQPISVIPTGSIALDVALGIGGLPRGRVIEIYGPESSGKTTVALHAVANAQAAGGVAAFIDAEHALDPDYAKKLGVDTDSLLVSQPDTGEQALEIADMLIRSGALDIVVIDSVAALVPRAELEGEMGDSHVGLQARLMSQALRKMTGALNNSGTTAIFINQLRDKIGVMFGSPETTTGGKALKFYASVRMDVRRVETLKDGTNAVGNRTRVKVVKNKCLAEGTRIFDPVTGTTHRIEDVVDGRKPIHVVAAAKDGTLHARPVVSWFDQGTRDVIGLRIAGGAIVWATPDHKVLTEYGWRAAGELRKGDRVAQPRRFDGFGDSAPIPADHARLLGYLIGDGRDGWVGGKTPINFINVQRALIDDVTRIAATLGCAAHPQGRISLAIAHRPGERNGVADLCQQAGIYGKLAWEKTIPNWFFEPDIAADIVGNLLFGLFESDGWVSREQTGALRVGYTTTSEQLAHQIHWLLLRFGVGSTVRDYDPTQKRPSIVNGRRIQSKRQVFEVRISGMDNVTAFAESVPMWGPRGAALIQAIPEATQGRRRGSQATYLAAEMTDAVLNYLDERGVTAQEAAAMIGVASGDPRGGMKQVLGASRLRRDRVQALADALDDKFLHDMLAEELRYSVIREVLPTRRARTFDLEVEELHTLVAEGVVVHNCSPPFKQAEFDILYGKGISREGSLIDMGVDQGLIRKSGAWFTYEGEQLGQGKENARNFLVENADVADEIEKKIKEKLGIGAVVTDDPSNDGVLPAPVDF

[10] = cytotoxicity in HPDE-C7 cells, cell-based, fluorescence, HTS (AID 430); assay type: functional; settings: Homo sapiens
[11] = half-maximal inhibitory concentration for glucagon-like peptide-1 release, STC-1 cell line, dose-response (AID 1117345); assay type: functional, cell-based
[12] = Glucagon-like peptide 1 release potency, NCI-H716 cell line, dose-response, half-maximal inhibitory concentration (AID 1117344); assay type: functional, cell-based
[13] = P. falciparum ATP4 D1247Y mutant growth inhibitors, dose response, NITD609-resistant line, SYBR Green, dry powder (AID 1159571); assay type: functional, cell-based;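 also: parasites synchronized at ring stage by sorbitol before testing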
[14] = P. falciparum 3D7-ScDHODH growth inhibitors, dose response, SYBR Green, dry powder samples (AID 1159570); assay type: functional, cell-based;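 also: parasite growth measured after 72 hours of compound exposure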
[15] = HepG2 cell cytotoxicity, dose response, cytotoxicity control, plate reader, dry powder samples (AID 1159569); assay type: functional, cell-based;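 also: inhibitor potency with signal falling toward the positive control level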
[16] = P. falciparum Dd2 growth inhibitors, dose response, SYBR Green, cherry-picked samples (AID 1159567); assay type: functional, cell-based
[17] = P. falciparum Dd2 growth inhibitors, dose response, SYBR Green, dry powder samples (AID 1159566); assay type: functional, cell-based;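 also: potency for growth inhibition with lower SYBR green DNA signal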
[18] = target: Estrogen receptor beta (Homo sapiens, UniProt Q92731); assay: ERβ–SRC-3 coactivator interaction inhibitors, confirmation, orthogonal assay, biochemical, ELISA, streptavidin-HRP readout (AID 1060)
[19] = target: T3, Ubiquitin-conjugating enzyme E2 N (Homo sapiens, UniProt P61088); assay type: functional;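 also: Dose-response confirmation in a TR-FRET assay detecting UBC13-driven polyubiquitin chain formation, inhibition measured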
T3 sequence (P61088 whole entry): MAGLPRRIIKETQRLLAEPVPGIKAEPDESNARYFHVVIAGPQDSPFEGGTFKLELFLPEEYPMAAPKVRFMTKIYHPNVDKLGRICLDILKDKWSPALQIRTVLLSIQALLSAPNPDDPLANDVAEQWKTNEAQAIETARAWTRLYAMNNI

[20] = growth suppression of PTEN-null colon cells, dose response, cell-based, HCT116 PTEN knockout (AID 1047); assay type: functional;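 also: HCT116 colon tumor cells with PTEN knocked out; cells exposed to compound for 60 hours before readout; potency for loss of cell viability measured by luminescence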
[21] = growth suppression of beta-catenin-knockout colon cells, dose response, cell-based, HCT116, human colon tumor (AID 1045); assay type: functional;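 also: HCT116 colon tumor cells with beta catenin knocked out; cells exposed to compound for 60 hours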
[22] = target: T4, Mannose-6-phosphate isomerase (Homo sapiens, UniProt P34949); assay: human PMI inhibitors, high substrate, primary screen, biochemical, fluorescence intensity, high mannose 6-phosphate (AID 1220)
T4 sequence (P34949 whole entry): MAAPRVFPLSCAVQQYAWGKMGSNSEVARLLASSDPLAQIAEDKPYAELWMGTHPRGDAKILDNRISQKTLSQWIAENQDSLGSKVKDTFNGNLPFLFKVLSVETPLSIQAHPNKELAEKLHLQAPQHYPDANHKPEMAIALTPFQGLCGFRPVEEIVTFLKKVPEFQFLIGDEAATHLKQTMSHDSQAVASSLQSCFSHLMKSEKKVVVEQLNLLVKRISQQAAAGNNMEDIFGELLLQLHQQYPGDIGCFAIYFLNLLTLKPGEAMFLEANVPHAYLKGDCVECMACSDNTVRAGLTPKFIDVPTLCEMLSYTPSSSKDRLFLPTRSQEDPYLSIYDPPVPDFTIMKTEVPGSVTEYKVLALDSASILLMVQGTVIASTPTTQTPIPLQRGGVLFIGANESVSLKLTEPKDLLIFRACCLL

Chain of Cytochrome P450 2C19 (P33261 whole entry): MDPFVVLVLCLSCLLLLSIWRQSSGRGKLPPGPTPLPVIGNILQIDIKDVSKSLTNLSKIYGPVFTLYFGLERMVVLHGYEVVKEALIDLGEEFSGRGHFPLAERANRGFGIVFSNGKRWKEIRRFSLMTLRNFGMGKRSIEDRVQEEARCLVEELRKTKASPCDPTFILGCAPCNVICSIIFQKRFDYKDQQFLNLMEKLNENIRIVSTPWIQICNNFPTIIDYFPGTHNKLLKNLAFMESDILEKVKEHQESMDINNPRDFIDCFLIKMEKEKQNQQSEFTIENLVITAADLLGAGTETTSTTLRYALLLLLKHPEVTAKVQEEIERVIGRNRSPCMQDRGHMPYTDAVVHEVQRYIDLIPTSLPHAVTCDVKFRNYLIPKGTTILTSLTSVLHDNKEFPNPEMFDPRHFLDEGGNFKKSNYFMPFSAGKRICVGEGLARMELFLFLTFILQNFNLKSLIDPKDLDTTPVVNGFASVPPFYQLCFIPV
Chain of Cytochrome P450 2C9 (P11712 whole entry): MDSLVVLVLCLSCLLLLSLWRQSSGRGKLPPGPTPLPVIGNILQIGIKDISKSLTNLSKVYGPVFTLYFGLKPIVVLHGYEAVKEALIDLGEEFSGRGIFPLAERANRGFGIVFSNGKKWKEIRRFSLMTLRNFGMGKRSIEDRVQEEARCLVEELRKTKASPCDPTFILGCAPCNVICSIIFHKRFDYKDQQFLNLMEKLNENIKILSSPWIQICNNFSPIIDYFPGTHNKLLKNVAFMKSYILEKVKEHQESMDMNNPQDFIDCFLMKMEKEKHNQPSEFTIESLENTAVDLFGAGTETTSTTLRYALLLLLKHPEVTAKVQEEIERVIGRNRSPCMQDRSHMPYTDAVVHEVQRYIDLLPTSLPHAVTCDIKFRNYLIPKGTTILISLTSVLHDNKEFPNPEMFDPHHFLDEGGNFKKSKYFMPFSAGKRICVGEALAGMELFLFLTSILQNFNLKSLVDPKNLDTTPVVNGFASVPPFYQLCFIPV
Chain of Estrogen receptor beta (Q92731 whole entry): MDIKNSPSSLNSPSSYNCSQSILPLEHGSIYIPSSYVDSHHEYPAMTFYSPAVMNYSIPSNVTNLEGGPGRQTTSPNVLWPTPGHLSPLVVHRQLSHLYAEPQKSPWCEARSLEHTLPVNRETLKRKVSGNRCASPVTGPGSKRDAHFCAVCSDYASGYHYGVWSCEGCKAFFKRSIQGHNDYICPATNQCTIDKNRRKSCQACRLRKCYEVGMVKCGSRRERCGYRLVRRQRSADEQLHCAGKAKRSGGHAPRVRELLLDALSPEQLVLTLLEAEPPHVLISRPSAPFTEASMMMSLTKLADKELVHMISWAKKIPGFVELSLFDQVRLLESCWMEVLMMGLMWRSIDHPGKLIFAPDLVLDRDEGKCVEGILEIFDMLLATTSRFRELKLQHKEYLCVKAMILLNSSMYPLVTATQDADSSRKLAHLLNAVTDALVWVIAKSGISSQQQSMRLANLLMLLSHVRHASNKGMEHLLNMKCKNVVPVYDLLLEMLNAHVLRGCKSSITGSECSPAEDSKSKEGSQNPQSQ

For `NCCC[C@@H](CC(=O)N[C@@H]1CCCC[C@H]1C(=O)N[C@H](CC(=O)N[C@@H](CCC(=O)O)CC(=O)O)Cc1ccccc1)NC(=O)C[C@H](CO)NC(=O)[C@@H]1CNCC[C@H]1N`, the AC50 [1] was 39.8 µM (inconclusive).
For `CC(=O)OCC1OC(c2cc(C)cc(C)c2)C=CC1OC(C)=O` (stereo not drawn), the AC50 [2] was 2.51 µM (inconclusive).
With `COC(=O)C1C(c2ccccc2)C2C(=O)c3c(OC)cc(OC)cc3O[C@@]12c1ccc(OC)cc1` (stereo partly drawn) the AC50 [2] was 0.001 µM (inconclusive).
With `CC(C)C[C@H](N)c1nnc(S(=O)(=O)Cc2ccc(F)cc2)o1` the AC50 [3] was 9.02 µM (active), the AC50 [4] was 27.4 µM (active) and the AC50 [5] was 1.4 µM (active). For the same molecule, the EC50 [6] was 7.91 µM (active), the AC50 [7] was 22.1 µM (active) and the AC50 [8] was 4.78 µM (active). For the same molecule, the EC50 [9] was 25.7 µM (active) and the EC50 [10] was 8.98 µM (active).
In the case of `CCCOC(=O)c1ccc(Oc2c(C)n[nH]c2-c2ccc(O)cc2O)cc1`, the EC50 [6] is reported as 13.7 µM (active) and the EC50 [10] is reported as 10.3 µM (active).
For `O=C(Nc1ccc(S(=O)(=O)N2CCOCC2)cc1)c1cc(Cl)ccc1NS(=O)(=O)c1ccc(Cl)s1`, the IC50 [11] was > 40 µM (inactive) and the IC50 [12] was > 40 µM (inactive).
For `O=C(c1cccnc1)N1CC(=O)N2[C@H](C1)[C@@H](c1ccc(-c3cccnc3)cc1)[C@@H]2CO`, the AC50 [13] was 0.693 µM (active), the AC50 [14] was 0.938 µM (active) and the AC50 [15] was > 100 µM (inactive). The AC50 [16] was 0.497 µM (active) and the AC50 [17] was 0.553 µM (active).
For `O=C(NCC1CCCO1)c1cc(-c2ccco2)nc2ccccc12` (stereo not drawn), the IC50 [18] was 26.4 µM (not active).
In the case of `CC(C)(C)[S@+]([O-])N1Cc2cc(C(=O)NCCN3CCCCC3)nc(-c3cccc(-c4cccc(C#N)c4)c3)c2[C@@H]1CCO`, the AC50 [13] is reported as 1.8 µM (active), the AC50 [14] is reported as 0.629 µM (active) and the AC50 [15] is reported as 91.7 µM (active). The AC50 [16] was 0.606 µM (active) and the AC50 [17] was 0.643 µM (active).
In the case of `CN(C(=O)CN(CCO)CC(=O)N(C)C(C)(C)Cc1ccccc1)C(C)(C)Cc1ccccc1` [OXETHAZAINE], the IC50 [19] is reported as > 20 µM (inactive), the IC50 [11] is reported as > 40 µM (inactive) and the IC50 [12] is reported as 25.1 µM (inactive).
With `COc1ccc(C2NC(=O)NC3=C2CCc2ccccc23)cc1` (stereo not drawn) the EC50 [20] was 8.31 µM (active), the AC50 [5] was > 120 µM (inactive) and the EC50 [21] was 9.83 µM (active). The IC50 [22] was 46.8 µM (active) and the EC50 [9] was 4.7 µM (active).
With `NCCC[C@@H](CC(=O)N[C@@H]1CCNC[C@H]1C(=O)N[C@H](CC(=O)N[C@@H](CCC(=O)O)CC(=O)O)Cc1ccccc1)NC(=O)C[C@H](CO)NC(=O)[C@@H]1CNCC[C@H]1N` the AC50 [2] was 15.8 µM (inconclusive) and the AC50 [1] was 15.8 µM (inconclusive).
With `CC1(C)Cc2c(C#N)c(NCc3ccco3)nc(-c3ccco3)c2CO1` the EC50 [6] was > 20 µM (not active) and the EC50 [10] was 10.1 µM (active).

Reference: ChEMBL document CHEMBL1201862, “PubChem BioAssay data set” (2004)
